Data from patent US7268128B2, “1,3,5-trisubstituted-5-phenyl and 5-pyridyl pyrazolopyrimidinone derivatives having PDE7 inhibiting action” (Ausbio Pharma Co., Ltd., priority 2001, dated 2007).

target: T1, PDE7 (type VII phosphodiesterase) (Homo sapiens, UniProt Q13946); assay: PDE7 inhibiting activity (3H-cAMP hydrolysis, active fraction from MOLT-4 cells); format: biochemical; conditions: PDE7 fraction from MOLT-4 cells, 0.064 μM cAMP, 10 μM rolipram present, 2 hours at 25° C.; read-out: IC50 values for phosphodiesterase inhibiting activities (PDE7)
T1 construct: endogenous in cells; host or cells: MOLT-4 (ATCC CRL-1582), soluble fraction, HiTrapQ anion-exchange fraction
Method in brief: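 PDE7 from MOLT-4 cell soluble fraction, HiTrapQ NaCl-gradient purified. Compounds reacted 2 h at 25° C in 20 mM tris-HCl pH 7.5, 1 mM MgCl2, 0.1 μCi 3H-cAMP (0.064 μM cAMP), 10 μM rolipram, 5′-nucleotidase; QAE-Sephadex-separated supernatant counted.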

T1 sequence (Q13946 whole entry): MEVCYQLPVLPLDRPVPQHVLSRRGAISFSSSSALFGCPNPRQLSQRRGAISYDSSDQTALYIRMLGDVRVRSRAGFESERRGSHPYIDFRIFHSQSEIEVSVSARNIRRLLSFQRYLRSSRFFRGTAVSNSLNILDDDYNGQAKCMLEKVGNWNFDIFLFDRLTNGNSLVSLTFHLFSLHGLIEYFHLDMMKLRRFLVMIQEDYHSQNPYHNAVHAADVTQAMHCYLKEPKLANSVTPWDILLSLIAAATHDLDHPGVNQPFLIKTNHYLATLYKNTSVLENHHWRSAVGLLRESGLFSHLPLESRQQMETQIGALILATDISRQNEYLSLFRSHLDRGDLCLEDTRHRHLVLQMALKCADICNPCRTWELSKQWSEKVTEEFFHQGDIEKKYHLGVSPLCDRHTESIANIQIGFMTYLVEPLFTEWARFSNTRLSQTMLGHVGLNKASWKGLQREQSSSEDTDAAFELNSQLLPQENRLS

IC50	SMILES
≤ 0.01 µM	COc1cc(NC(N)=O)ccc1-c1nc2c(c(C3CCCCC3)nn2C)c(=O)[nH]1 [Example 140, N-[4-(3-cyclohexyl-1-methyl-4-oxo-4,5-dihydro-1H-pyrazolo[3,4-d]pyrimidin-6-yl)-3-methoxyphenyl]urea]
≤ 0.01 µM	COc1cc(NS(C)(=O)=O)ccc1-c1nc2c(c(C3CCCCC3)nn2C)c(=O)[nH]1 [Example 142, N-[4-(3-cyclohexyl-1-methyl-4-oxo-4,5-dihydro-1H-pyrazolo[3,4-d]pyrimidin-6-yl)-3-methoxyphenyl]methanesulfonamide]
≤ 0.01 µM	COc1cc(N2CCOC2=O)ccc1-c1nc2c(c(C3CCCCC3)nn2C)c(=O)[nH]1 [Example 143, 3-Cyclohexyl-6-[2-methoxy-4-(2-oxo-1,3-oxazolidin-3-yl)phenyl]-1-methyl-1,5-dihydro-4H-pyrazolo[3,4-d]pyrimidin-4-one]
≤ 0.01 µM	COc1cc(N2CCNC2=O)ccc1-c1nc2c(c(C3CCCCC3)nn2C)c(=O)[nH]1 [Example 144, 3-Cyclohexyl-6-[2-methoxy-4-(2-oxo-1-imidazolidinyl)phenyl]-1-methyl-1,5-dihydro-4H-pyrazolo[3,4-d]pyrimidin-4-one]
≤ 0.01 µM	CCOC(=O)Nc1ccc(-c2nc3c(c(C4CCCCC4)nn3C)c(=O)[nH]2)c(OC)c1 [Example 145, Ethyl 4-(3-cyclohexyl-1-methyl-4-oxo-4,5-dihydro-1H-pyrazolo[3,4-d]pyrimidin-6-yl)-3-methoxyphenylcarbamate]
≤ 1 µM	COc1cc(N(C)C(C)=O)ccc1-c1nc2c(c(C3CCCCC3)nn2C)c(=O)[nH]1 [Example 146, N-[4-(3-cyclohexyl-1-methyl-4-oxo-4,5-dihydro-1H-pyrazolo[3,4-d]pyrimidin-6-yl)-3-methoxyphenyl]-N-methylacetamide]
≤ 1 µM	COc1cc(N(C)S(C)(=O)=O)ccc1-c1nc2c(c(C3CCCCC3)nn2C)c(=O)[nH]1 [Example 147, N-[4-(3-cyclohexyl-1-methyl-4-oxo-4,5-dihydro-1H-pyrazolo[3,4-d]pyrimidin-6-yl)-3-methoxyphenyl]-N-methylmethanesulfonamide]
≤ 0.01 µM	COc1cc(NC(=O)N2CCOCC2)ccc1-c1nc2c(c(C3CCCCC3)nn2C)c(=O)[nH]1 [Example 148, N-[4-(3-cyclohexyl-1-methyl-4-oxo-4,5-dihydro-1H-pyrazolo[3,4-d]pyrimidin-6-yl)-3-methoxyphenyl]-4-morpholinecarboxamide]
≤ 0.01 µM	CNC1CCN(c2ccc(-c3nc4c(c(C5CCCCC5)nn4C)c(=O)[nH]3)c(OC)c2)CC1 [Example 150, 3-Cyclohexyl-6-{2-methoxy-4-[4-(methylamino)-1-piperidinyl]phenyl}-1-methyl-1,5-dihydro-4H-pyrazolo[3,4-d]pyrimidin-4-one monomethanesulfonate]
≤ 0.01 µM	COc1cc(N2CCN(C)C2=O)ccc1-c1nc2c(c(C3CCCCC3)nn2C)c(=O)[nH]1 [Example 152, 3-Cyclohexyl-6-[2-methoxy-4-(3-methyl-2-oxo-1-imidazolidinyl)phenyl]-1-methyl-1,5-dihydro-4H-pyrazolo[3,4-d]pyrimidin-4-one]
≤ 0.01 µM	COc1cc(N2CCC(N(C)C)CC2)ccc1-c1nc2c(c(C3CCCCC3)nn2C)c(=O)[nH]1 [Example 154, 3-Cyclohexyl-6-{4-[4-(dimethylamino)-1-piperidinyl]-2-methoxyphenyl}-1-methyl-1,5-dihydro-4H-pyrazolo[3,4-d]pyrimidin-4-one monomethanesulfonate]
≤ 0.01 µM	COc1cc(N2CCCS2(=O)=O)ccc1-c1nc2c(c(C3CCCCC3)nn2C)c(=O)[nH]1 [Example 155, 3-Cyclohexyl-6-[4-(1,1-dioxido-2-isothiazolidinyl)-2-methoxyphenyl]-1-methyl-1,5-dihydro-4H-pyrazolo[3,4-d]pyrimidin-4-one]
≤ 1 µM	COc1cc(S(=O)(=O)N(C)CCO)ccc1-c1nc2c(c(C3CCCCC3)nn2C)c(=O)[nH]1 [Example 156, 4-(3-Cyclohexyl-1-methyl-4-oxo-4,5-dihydro-1H-pyrazolo[3,4-d]pyrimidin-6-yl)-N-(2-hydroxyethyl)-3-methoxy-N-methylbenzenesulfonamide]
≤ 1 µM	COc1cc(S(=O)(=O)N(C)CCN(C)C)ccc1-c1nc2c(c(C3CCCCC3)nn2C)c(=O)[nH]1 [Example 158, 4-(3-Cyclohexyl-1-methyl-4-oxo-4,5-dihydro-1H-pyrazolo[3,4-d]pyrimidin-6-yl)-N-(2-(dimethylamino)ethyl)-3-methoxy-N-methylbenzenesulfonamide monomethanesulfonate]
≤ 1 µM	COc1cc(S(=O)(=O)NCCCO)ccc1-c1nc2c(c(C3CCCCC3)nn2C)c(=O)[nH]1 [Example 159, 4-(3-Cyclohexyl-1-methyl-4-oxo-4,5-dihydro-1H-pyrazolo[3,4-d]pyrimidin-6-yl)-N-(3-hydroxypropyl)-3-methoxybenzenesulfonamide]
≤ 1 µM	COc1cc(S(=O)(=O)N2CCCNCC2)ccc1-c1nc2c(c(C3CCCCC3)nn2C)c(=O)[nH]1 [Example 161, 3-Cyclohexyl-6-[4-(1,4-diazepan-1-ylsulfonyl)-2-methoxyphenyl]-1-methyl-1,5-dihydro-4H-pyrazolo[3,4-d]pyrimidin-4-one monomethanesulfonate]
≤ 0.01 µM	COc1cc(S(=O)(=O)N2CCCN(C)CC2)ccc1-c1nc2c(c(C3CCCCC3)nn2C)c(=O)[nH]1 [Example 163, 3-Cyclohexyl-6-{2-methoxy-4-[(4-methyl-1,4-diazepan-1-yl)sulfonyl]phenyl}-1-methyl-1,5-dihydro-4H-pyrazolo[3,4-d]pyrimidin-4-one monomethanesulfonate]
≤ 1 µM	COc1cc(S(=O)(=O)N2CCC(O)C2)ccc1-c1nc2c(c(C3CCCCC3)nn2C)c(=O)[nH]1 (stereo not drawn) [Example 164, 3-Cyclohexyl-6-{4-[(3-hydroxy-1-pyrrolidinyl)sulfonyl]-2-methoxyphenyl}-1-methyl-1,5-dihydro-4H-pyrazolo[3,4-d]pyrimidin-4-one]
≤ 1 µM	COc1cc(S(=O)(=O)N2CCSCC2)ccc1-c1nc2c(c(C3CCCCC3)nn2C)c(=O)[nH]1 [Example 165, 3-Cyclohexyl-6-[2-methoxy-4-(4-thiomorpholinylsulfonyl)phenyl]-1-methyl-1,5-dihydro-4H-pyrazolo[3,4-d]pyrimidin-4-one]
≤ 1 µM	CNC1CCN(S(=O)(=O)c2ccc(-c3nc4c(c(C5CCCCC5)nn4C)c(=O)[nH]3)c(OC)c2)CC1 [Example 169, 3-Cyclohexyl-6-(2-methoxy-4-{[4-(methylamino)-1-piperidinyl]sulfonyl}phenyl)-1-methyl-1,5-dihydro-4H-pyrazolo[3,4-d]pyrimidin-4-one monomethanesulfonate]
≤ 1 µM	COc1cc(S(=O)(=O)N2CCC(N)C2)ccc1-c1nc2c(c(C3CCCCC3)nn2C)c(=O)[nH]1 (stereo not drawn) [Example 172, 6-{4-[(3-Amino-1-pyrrolidinyl)sulfonyl]-2-methoxyphenyl}-3-cyclohexyl-1-methyl-1,5-dihydro-4H-pyrazolo[3,4-d]pyrimidin-4-one monomethanesulfonate]
≤ 1 µM	COc1cc(S(=O)(=O)N2CCC(N)CC2)ccc1-c1nc2c(c(C3CCCCC3)nn2C)c(=O)[nH]1 [Example 175, 6-{4-[(4-Amino-1-piperidinyl)sulfonyl]-2-methoxyphenyl}-3-cyclohexyl-1-methyl-1,5-dihydro-4H-pyrazolo[3,4-d]pyrimidin-4-one monomethanesulfonate]
≤ 1 µM	COc1cc(N2CCSCC2)ccc1-c1nc2c(c(C3CCCCC3)nn2C)c(=O)[nH]1 [Example 176, 3-Cyclohexyl-6-[2-methoxy-4-(4-thiomorpholinyl)phenyl]-1-methyl-1,5-dihydro-4H-pyrazolo[3,4-d]pyrimidin-4-one]
≤ 1 µM	CN1CCN(c2ccc(-c3nc4c(c(C5CCCCC5)nn4C)c(=O)[nH]3)cc2)CC1 [Example 179, 3-Cyclohexyl-1-methyl-6-[4-(4-methyl-1-piperazinyl)phenyl]-1,5-dihydro-4H-pyrazolo[3,4-d]pyrimidin-4-one monomethanesulfonate]
≤ 0.01 µM	COc1cc(N2CCC(N)CC2)ccc1-c1nc2c(c(C3CCCCC3)nn2C)c(=O)[nH]1 [Example 185, 6-[4-(4-Amino-1-piperidinyl)-2-methoxyphenyl]-3-cyclohexyl-1-methyl-1,5-dihydro-4H-pyrazolo[3,4-d]pyrimidin-4-one monomethanesulfonate]
≤ 1 µM	CNC1CCN(c2ccc(-c3nc4c(c(C5CCCCC5)nn4C)c(=O)[nH]3)cc2)CC1 [Example 189, 3-Cyclohexyl-1-methyl-6-{4-[4-(methylamino)-1-piperidinyl]phenyl}-1,5-dihydro-4H-pyrazolo[3,4-d]pyrimidin-4-one monomethanesulfonate]
≤ 1 µM	COc1cc(S(=O)(=O)N2CCS(=O)(=O)CC2)ccc1-c1nc2c(c(C3CCCCC3)nn2C)c(=O)[nH]1 [Example 191, 3-Cyclohexyl-6-{4-[(1,1-dioxido-4-thiomorpholinyl)sulfonyl]-2-methoxyphenyl}-1-methyl-1,5-dihydro-4H-pyrazolo[3,4-d]pyrimidin-4-one]
≤ 0.01 µM	COc1cc(N2CCS(=O)(=O)CC2)ccc1-c1nc2c(c(C3CCCCC3)nn2C)c(=O)[nH]1 [Example 192, 3-Cyclohexyl-6-[4-(1,1-dioxido-4-thiomorpholinyl)-2-methoxyphenyl]-1-methyl-1,5-dihydro-4H-pyrazolo[3,4-d]pyrimidin-4-one]
≤ 1 µM	CCn1nc(C2CCCCC2)c2c(=O)[nH]c(-c3ccc(N4CCN(C)CC4)cc3OC)nc21 [Example 194, 3-Cyclohexyl-1-ethyl-6-[2-methoxy-4-(4-methyl-1-piperazinyl)phenyl]-1,5-dihydro-4H-pyrazolo[3,4-d]pyrimidin-4-one]
≤ 1 µM	CCn1nc(C2CCCCC2)c2c(=O)[nH]c(-c3ccc(N4CCC(NC)CC4)cc3OC)nc21 [Example 196]
